For data set [1], the system named is PC-3. The conditions noted are these: MTT assay; data from the previous study [12]; cited from earlier work. On the technique in general: Formazan colour is commonly taken as a measure of viable cells.
Data set [2] deals with PC-3 cells. Kind of data set: Methylene blue survival assay. Format: cell-based. Particulars: Homo sapiens, 72-hr treatment. Here is the method: (§1) Methylene blue survival assay. Prostate cancer cells were seeded 2000-3500 per well (cell line dependent) and treated with LQZ-7-3 for 72 hours. After 72 hours, media was then removed and cells were fixed with methanol for 30 minutes and subsequently stained with 100 μL of 1% methylene blue (diluted in 10 mM borate buffer) for 1 hour. The cells were then washed 3× with 10 mM borate buffer and then allowed to air dry for 30 minutes. 100 μL of 100% ethanol:0.1 M HCl (1:1) was added to each well to dissolve the methylene blue stain and absorbance was measured via spectrometry at […]. After normalization to DMSO controls, the percent viabilities were graphed and IC50 concentrations were determined using Prism.
(§2) LQZ-7I has enhanced cytotoxicity compared to the parent compound LQZ-7. These five newly synthesized LQZ-7 analogs were first tested for their cytotoxicity against prostate cancer cell lines C4-2 and PC-3 in comparison with their parent compound LQZ-7 using methylene blue assay. […] The other compounds performed worse with higher IC50 compared with LQZ-7.

Data set [3] has as its system C4-2 cells. The experiment in a line: Methylene blue survival assay. Format: cell-based. Particulars: Homo sapiens, 72-hr treatment. Here is the method: as §1, §2
Data set [4] has as its system cleaved caspase 3. The experiment in a line: Western blot analysis of cleaved caspase 3. The format is cell-based, human. The conditions noted are these: C4-2 and PC-3 cells. The source says: To determine if 7I-induced survivin degradation occurs in proteasome, we performed a rescue experiment by pre-treating cells using proteasome inhibitors MG132 and bortezomib for 1 hr prior to 7I treatment. […] Thus, 7I likely induces survivin degradation via proteasome. 7I induces apoptosis. It has been shown previously that depleting survivin or inhibiting survivin using dominant negative forms of survivin cause spontaneous apoptosis in cancer cells (ref) and that the parent compound LQZ-7 also induces apoptosis. We next tested if 7I would induce apoptosis by inhibiting survivin. For this purpose, we first performed Western blot analysis of cleaved caspase 3 in C4-2 and PC-3 cells following 7I treatments. […] We also performed annexin V staining of C4-2 and PC-3 cells as another indicator of apoptosis following 7I treatments. […] 7I inhibits growth of PC-3 xenograft tumors by inhibiting survivin. We next determined if 7I is active in suppressing tumor growth in vivo using a PC-3 xenograft model. […] The xenograft tumors in the 7I-treatment group trended to be smaller and pale in color than the control group (FIG. 16C-D). Thus, 7I may be effective in inhibiting tumor growth with little toxicity.
Apoptosis Studies. To determine if LQZ-7F-1 also induces apoptosis of cancer cells Flow Cytometry with Annexin V staining was performed in coordination with the Flow Cytometry Core. […]

For data set [5], the target named is T1, survivin (Homo sapiens, UniProt O15392). Kind of data set: Survivin level by Western blot in prostate cancer cells. The conditions noted are these: C4-2 and PC-3 cells.
T1 sequence (O15392 whole entry): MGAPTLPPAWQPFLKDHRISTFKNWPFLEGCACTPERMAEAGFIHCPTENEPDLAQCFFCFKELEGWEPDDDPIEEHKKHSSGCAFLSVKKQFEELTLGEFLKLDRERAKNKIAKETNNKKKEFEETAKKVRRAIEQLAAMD
Method: IAP family member degradation assay. For this experiment C4-2 or PC-3 cells were plated in a 10 cm dish at 1×10^6 cells per dish. 24 hours later the media was changed and cells were treated with DMO or LQZ-7-3. After 48 hours the cells were harvested, washed in PBS, and IAP family members level were evaluated using specific antibodies and Western Blotting.
Data set [6] concerns C4-2 vector cells. Kind of data set: Methylene blue assay in vector control cells. The format is cell-based. The conditions noted are these: Homo sapiens; C4-2 vector control; read-out: IC50, vector-transfect control clone. The protocol: as §1
(§3) Survivin overexpression decreases cellular sensitivity to 7I. To corroborate above findings and to further investigate 7I inhibition of cancer cell survival via survivin, we generated a stable C4-2 clone with overexpression of HA-tagged survivin (FIG. 13D) and tested the effect of survivin over-expression on 7I cytotoxicity. […] Thus, 7I likely works via inhibiting survivin.
(§4) LQZ-7F-1 Cytotoxicity in Survivin Overexpression Cells. To determine if survivin overexpressing cells have a decreased sensitivity to LQZ-7F-1, C4-2 survivin stable overexpressing cells were once again used in a cell cytotoxicity assay.

The subject of data set [7] is PC-3 cells. Kind of data set: Apoptosis assay (Annexin V flow cytometry). Format: cell-based, human. Particulars: 3 μM. The protocol:
(§5) Survivin Cycloheximide Half-Life Assay. The effect of LQZ-7-3 on survivin half-life was performed as previously described. Briefly, PC-3 or C4-2 cells were pretreated with 10 μmol/L cycloheximide for 1 hour followed by incubation with or without LQZ-7-3 10 uM for different times (0-6 hours). The cells were then harvested for Western Blot analysis for survivin. Apoptosis Assay. The apoptosis assay was performed as detailed in the Anenxin V-FITC kit from BioVision. Briefly, apoptosis was induced by treatment with LQZ-7-3 and cells were collected by centrifugation. Cells were resuspended in 500 ul of 1× binding buffer and 5 ul of annexin V-FITC and 5 ul of propidium iodide (50 ug/ml) was added to the cells. The cells were incubated at room temperature for 5 minutes in the dark then subjected to quantification by flow cytometry.
On the technique in general: Flow cytometry measures light scatter and fluorescence of single cells or particles in a stream.

Data set [8] has as its system C4-2 cells. The experiment in a line: Apoptosis assay (Annexin V flow cytometry). Format: cell-based, human. Particulars: 3 μM. Here is the method: as §5
The subject of data set [9] is stable C4-2 cells over expressing survivin. Kind of data set: Methylene blue assay in survivin overexpression cells. The format is cell-based. The conditions noted are these: Homo sapiens; stable C4-2 clone, HA-tagged survivin; read-out: IC50, survivin over-expression. Here is the method:
as §1, §3, §4

The target of data set [10] is CIAP1 (Homo sapiens, UniProt Q13490). The experiment in a line: IAP family member degradation assay. The format is cell-based. The conditions noted are these: C4-2 and PC-3 cells, Western blot. The protocol: (§6) Survivin mammalian two hybrid assay. […] Each condition was tested in triplicate. […] IAP family member degradation assay.
Sequence of CIAP1 (Q13490 whole entry): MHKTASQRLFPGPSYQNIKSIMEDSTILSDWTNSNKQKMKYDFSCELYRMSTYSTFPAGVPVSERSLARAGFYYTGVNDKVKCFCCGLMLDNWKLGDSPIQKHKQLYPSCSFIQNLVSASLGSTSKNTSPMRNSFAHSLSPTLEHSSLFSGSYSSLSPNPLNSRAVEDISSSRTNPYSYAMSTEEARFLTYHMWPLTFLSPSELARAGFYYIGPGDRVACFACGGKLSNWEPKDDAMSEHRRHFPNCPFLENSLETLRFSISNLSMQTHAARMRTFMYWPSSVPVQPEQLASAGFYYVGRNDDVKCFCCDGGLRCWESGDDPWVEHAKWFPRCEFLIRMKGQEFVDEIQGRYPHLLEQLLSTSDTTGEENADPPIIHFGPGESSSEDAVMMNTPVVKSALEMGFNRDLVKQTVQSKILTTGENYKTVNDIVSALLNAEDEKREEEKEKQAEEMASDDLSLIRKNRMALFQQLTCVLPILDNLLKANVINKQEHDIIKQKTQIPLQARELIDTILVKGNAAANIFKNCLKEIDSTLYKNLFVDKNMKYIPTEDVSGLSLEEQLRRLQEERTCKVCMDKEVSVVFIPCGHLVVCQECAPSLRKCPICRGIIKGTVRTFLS
(§7) Selectivity of 7I. […] To ensure 7I is selective to survivin, we tested its effect on other members of the IAP family by taking advantage of its induction of target loss. For this purpose, we performed Western blot analysis to determine the expression level of other IAPs including XIAP, CIAP1, and CIAP2 in addition to survivin following 7I treatment of C4-2 and PC-3 cells. […] However, it had no effect on the expression of XIAP, CIAP1, and CIAP2. Thus, 7I may be selective to its intended target survivin. 7I induces survivin degradation in a proteasome-dependent manner. […] Because 7I inhibited survivin dimerization as shown above, we hypothesized that 7I will also induce survivin degradation. To test this hypothesis, we examined survivin expression level in C4-2 and PC-3 cells following 7I treatments. […] We next performed a cycloheximide-chase experiment following 7I treatment to determine the half-life of survivin. […] Thus, 7I induces survivin degradation in both cell lines.
A general note: In western blotting, separated proteins are transferred to a membrane and probed.

For data set [11], the target named is XIAP (Homo sapiens, UniProt P98170). Kind of data set: IAP family member degradation assay. Particulars: C4-2 and PC-3 cells, Western blot. Format: cell-based. Here is the method: as §6, §7
Sequence of XIAP (P98170 whole entry): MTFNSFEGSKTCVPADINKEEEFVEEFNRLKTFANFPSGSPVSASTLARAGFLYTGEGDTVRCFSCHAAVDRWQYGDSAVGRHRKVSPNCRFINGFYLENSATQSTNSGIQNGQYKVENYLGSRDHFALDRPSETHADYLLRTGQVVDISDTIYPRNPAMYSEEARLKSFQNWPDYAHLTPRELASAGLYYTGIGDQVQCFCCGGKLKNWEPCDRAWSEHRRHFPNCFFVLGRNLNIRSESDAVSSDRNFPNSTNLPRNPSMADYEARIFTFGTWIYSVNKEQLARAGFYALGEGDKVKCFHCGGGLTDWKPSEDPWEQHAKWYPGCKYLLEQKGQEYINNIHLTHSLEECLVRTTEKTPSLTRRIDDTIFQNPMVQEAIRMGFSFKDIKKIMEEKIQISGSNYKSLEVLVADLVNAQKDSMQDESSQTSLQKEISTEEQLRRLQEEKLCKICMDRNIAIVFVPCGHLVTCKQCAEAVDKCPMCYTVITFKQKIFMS
The target in data set [12] is CIAP2 (Homo sapiens, UniProt Q13489). Kind of data set: IAP family member degradation assay. Particulars: C4-2 and PC-3 cells, Western blot. Format: cell-based. Here is the method:
as §6, §7

Data set [13] has as its system PC-3 xenograft tumors. The experiment in a line: PC-3 xenograft model. Format: in vivo, NSG male mice. Here is the method:
PC-3 Xenograft Model. For the in vivo efficacy study, 3×10^6 PC-3 cells in media were implanted in to the hind flanks of 6 week old NSG male mice. After the tumor volume reached approximately […] in volume, the mice were randomized in to two groups (5 mice/group). The mice were either given 200 uL vehicle (90% corn oil/10% DMSO) or LQZ-7-3 100 mg/kg vial oral gavage every other day for a total of ten treatments. Before each treatment mouse bodyweight and tumor volume by caliper was measured. At the end of the study mice were sacrificed, and tumors were extracted for western blot analysis and […] staining of survivin.

Data set [14] relates to p53-large T antigen dimerization. Kind of data set: Mammalian two hybrid assay, specificity control. Particulars: same two hybrid assay.
Method: (§8) Survivin mammalian two hybrid assay. The mammalian two hybrid assay was performed utilizing the ClonTech Matchmaker Mammalian Two Hybrid Assay kit [13]. Briefly, the coding region (˜400 bp) of survivin was cloned in to two different plasmids, the pM plasmid containing the GAL4-DNA Binding Domain and the pVP16 plasmid containing an activation domain. […] These two plasmids (0.45 ug/well) along with the pGSEAP reporter plasmid (0.09 ug/well) and firefly luciferase plasmid (30 ng/well) were co-transfected in to 1×10^5 Du145 cells per well in a 12 well plate. Each condition was tested in triplicate. […] SEAP was detected utilizing the Takara ClonTech SEAP Great Escape chemiluminescence assay kit 2.0 and cells were lysed and luciferase was measured to control for transfection efficiency.
For data set [15], the target named is survivin dimerization (Homo sapiens, UniProt O15392). The experiment in a line: Survivin mammalian two hybrid assay (SEAP reporter, Du145 cells). The format is cell-based. Particulars: 24 hours treatment.
Sequence of survivin dimerization (O15392 whole entry): as the sequence (O15392 whole entry) above
Method: as §8
Dimerization of survivin activates the expression of Secreted Embryonic Alkaline Phosphatase (SEAP) reporter gene, which can be monitored.
Data set [16] is described as follows: Solubility in corn oil. Format: physicochemical.
For data set [17], the target named is T1, survivin. The experiment in a line: Proteasome inhibitors study (rescue of survivin loss). The format is cell-based. Further details: we examined survivin expression level in C4-2 and PC-3 cells following 7I treatments; endogenous in cells; host or cells: PC-3, C4-2. Particulars: PC-3 and C4-2 cells. The protocol: Proteasome Inhibitors Study. For the proteasome inhibitor rescue experiment, PC3 and C4-2 cells were seeded in 10-cm dishes at 8×10^5 cells/dish and cultured for 48 hours followed by replacement with fresh media containing DMSO control, 7 μmol/L MG132, or 70 nmol/L bortezomib and incubation for 2 hours. LQZ-7-3 was then added to the culture to final concentrations of 10 uM respectively and incubated for additional 24 hours. The cells were then harvested used for Western blot analysis of survivin.
To determine if 7I-induced survivin degradation occurs in proteasome, we performed a rescue experiment by pre-treating cells using proteasome inhibitors MG132 and bortezomib for 1 hr prior to 7I treatment. […] Thus, 7I likely induces survivin degradation via proteasome. 7I induces apoptosis. It has been shown previously that depleting survivin or inhibiting survivin using dominant negative forms of survivin cause spontaneous apoptosis in cancer cells (ref) and that the parent compound LQZ-7 also induces apoptosis. We next tested if 7I would induce apoptosis by inhibiting survivin. For this purpose, we first performed Western blot analysis of cleaved caspase 3 in C4-2 and PC-3 cells following 7I treatments. […] We next determined if 7I is active in suppressing tumor growth in vivo using a PC-3 xenograft model. […]

Setting [18] is: read-out: IC50 against PC-3 cells.
[19] abbreviates: read-out: IC50 against C4-2 cells.

The structures appear in SMILES notation. Entries after “also recorded” stand apart in the source; their conditions may differ. Read-outs that look alike come from different tables or passages of the source.

Results on nine compounds are retold here after US12115158B2, “Survivin-targeting anti-tumor agents and uses thereof” (Indiana University Research and Technology Corporation, priority 2020, dated 2024).

For orientation: IC50 means the concentration needed to halve the response being measured.

Sequence of CIAP2 (Q13489 whole entry): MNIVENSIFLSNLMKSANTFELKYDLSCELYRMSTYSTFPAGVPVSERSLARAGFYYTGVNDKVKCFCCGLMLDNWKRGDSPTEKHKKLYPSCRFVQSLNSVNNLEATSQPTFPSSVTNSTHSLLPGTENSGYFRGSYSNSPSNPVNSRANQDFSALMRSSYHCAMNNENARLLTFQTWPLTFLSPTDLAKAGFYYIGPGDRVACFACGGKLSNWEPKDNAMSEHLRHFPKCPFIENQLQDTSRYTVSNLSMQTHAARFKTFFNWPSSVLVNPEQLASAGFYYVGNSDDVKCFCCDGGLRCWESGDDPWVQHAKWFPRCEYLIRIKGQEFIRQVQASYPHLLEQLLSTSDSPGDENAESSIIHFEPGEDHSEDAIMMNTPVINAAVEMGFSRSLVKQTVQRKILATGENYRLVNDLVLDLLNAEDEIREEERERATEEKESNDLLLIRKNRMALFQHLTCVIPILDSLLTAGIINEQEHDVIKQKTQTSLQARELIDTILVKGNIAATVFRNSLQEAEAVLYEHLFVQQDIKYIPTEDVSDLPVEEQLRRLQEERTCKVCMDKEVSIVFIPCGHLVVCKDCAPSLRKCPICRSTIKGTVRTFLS

As for `Cc1cccc(Nc2nc3nonc3nc2N/N=C/c2ccc(-c3ccc(Cl)c([N+](=O)[O-])c3)o2)c1C` [LQZ-7A], the concentration for half-maximal inhibition (IC50) in data set [1] is 7.2 ± 2.7 µM.
With `Cc1ccc(-c2ccc(/C=N/Nc3nc4nonc4nc3Nc3cccc(Br)c3)o2)cc1Cl` [LQZ-7B], the half-maximal inhibitory concentration (IC50) in [1] was 3.3 ± 0.2 µM.
Consider `CCOC(=O)c1ccc(Nc2nc3nonc3nc2N/N=C/c2c[nH]nc2-c2ccccc2)cc1` [LQZ-7C], for which the IC50 in data set [1] was 3.5 µM.
`Cc1cccc(Nc2nc3nonc3nc2N/N=C/c2cc3c(cc2[N+](=O)[O-])OCO3)c1C` [LQZ-7D]: the IC50 in [1] was 2.6 ± 0.3 µM.
For the compound `O=C(Nc1nc2ccccc2nc1Nc1ccc(F)cc1)c1ccc2c(c1)OCO2` [LQZ-7G, N-(3-((4-fluorophenyl)amino)quinoxalin-2-yl)benzo[d][1,3]dioxole-5-carboxamide], the IC50 was determined as 20.7 µM in [2] (read-out: IC50 (μm) PC-3) and 14.3 µM in data set [3] (read-out: IC50 (μm) C4-2).
The matching figures for `O=C(Nc1nc2ccccc2nc1Nc1ccc(F)cc1)c1ccccc1` [LQZ-7H, N-(3-((4-fluorophenyl)amino)quinoxalin-2-yl)benzamide]: 19.7 µM and 12.7 µM.
Regarding `Fc1ccc(Nc2nc3ccccc3nc2Nc2ccc(F)cc2)cc1` [LQZ-7I, N^2,N^3-bis(4-fluorophenyl)quinoxaline-2,3-diamine], the “cleaved caspase 3 levels” value in [4] is listed as “induced cleavage of caspase 3 in a dose dependent manner”. Further, the “survivin expression level after treatment” value in data set [5] is “reduced; also recorded: time-dependent survivin loss”. Further, the 50% inhibitory concentration (IC50) was about 2 µM in [6]; about 7 µM in data set [9]; 4.8 µM in data set [2] (read-out: IC50 (μm) PC-3); 4.8 µM in data set [2] (setting [18]); 3.1 µM in data set [3] (read-out: IC50 (μm) C4-2); 3.1 µM in data set [3] (setting [19]). Further, the “apoptosis (annexin V staining)” value is about 39% in data set [7] and about 48% in [8]. Further, the “expression of CIAP1” value in data set [10] was “no effect”. Also, the “expression of XIAP” value in data set [11] was “no effect”. Also, the “expression of CIAP2” value in data set [12] is reported as “no effect”. Besides, the body weight entry in [13] (100 mg/kg oral gavage) was “lacking changes”. Further, in data set [13] (100 mg/kg oral gavage), the “wet weight of major organs at the end of the study” value is recorded as “lacking changes”. Further, the tumor growth entry in data set [13] (100 mg/kg oral gavage every other day, ten treatments) is on record as “significantly suppressed”. Moreover, in [13] (Western blot and immunofluorescence staining, treatment vs control group), the “survivin expression in xenograft tumors” value was “drastically reduced”. The “p53-large T antigen dimerization” value in data set [14] is listed as “no effect”. In data set [15], the “SEAP reporter expression / survivin dimerization” value was “significantly decreased; also recorded: significantly inhibited”. Further, the “solubility in corn oil” value in [16] was “soluble”. For the same compound, in [17], the “compound-induced survivin loss after pretreatment with proteasome inhibitors MG132 and bortezomib” value is given as “significantly reversed”.
Regarding `Cc1cccc(Nc2nc3ccccc3nc2Nc2cccc(C)c2C)c1C` [LQZ-7J, N^2,N^3-bis(2,3-dimethylphenyl)quinoxaline-2,3-diamine], the IC50 in [2] (read-out: IC50 (μm) PC-3) is 24.8 µM; in data set [3] (read-out: IC50 (μm) C4-2), 17.6 µM.
Consider `Cc1cccc(Nc2nc3nonc3nc2N/N=C/c2ccc(-c3cccc(C(=O)O)c3)o2)c1C` [LQZ-7], for which the half-inhibitory concentration (IC50) stood at 8.1 µM in [2] (read-out: IC50 (μm) PC-3), 8.1 µM in data set [2] (setting [18]), 9.1 µM in data set [3] (read-out: IC50 (μm) C4-2) and 9.1 µM in data set [3] (setting [19]). The “p53-large T antigen dimerization” value in [14] is “no effect”.
